The format of data set [1] is in vivo. The settings on record: for FCR: feed conversion ratio per trial group; for FCR / Mortality: piglets 7-20 kg; for Mortality: whole trial; for Number of veterinary treatments: sum of all treatments performed on the animals during the total period of the trial; for Daily growth: weaned piglets, 7-20 kg, fed ad libitum. The text has this: The present example relates to the effects of a composition according to the invention comprising a fungus at and least one growth promoting element on piglet performance of piglets in the phase 7-20 kg.
Commercial available weaning and starter feeds were used. During the first 2 weeks, a weaning feed was given to the piglets. From the third week till the end of the trial, i.e. at an average weight of 20 kg, the piglets received a starter feed. The trial feeds used are illustrated in table 2. During the whole trial period the piglets were fed ad libitum. The piglets under study were 120 weaned barrows and sows, with an age of 28 days at weaning. In the stable, 12 pens were present which contained each 10 piglets. For each trial, 3 replicates of 10 piglets were used. Ventilation and heating was automatically controlled. In each pen, 1 drinking nipple was present for water supply. Piglets were distinguished and weighed individually. They were allocated randomly to the different groups so that the average weight of each group was equal. A total of 120 animals was monitored. The following parameters were monitored during the trial: • the feed intake per trial group (measured at the end of the trial) • the weight of the individual animals (was measured at the beginning and at the end of the trial) • the feed conversion ratio per trial group was calculated • veterinary treatments and • mortality.

Data set [2] in a line: Influence of Lentinus edodes on the zootechnic performance of poultry (feeding trial). The format is in vivo, chickens. The settings on record: Lentinus edodes at 0.5% of feed where present; for FCR: feed conversion ratio, chickens, end of trial; for Daily growth: one day old chickens, feed ad libitum. The source says:
20×40 one day old chickens were provided with following feeds: control feed, control feeds supplemented with a growth-promoting component, control feed supplemented with 0.5% fungi (Lentinus edodes) and control feed supplemented with a growth-promoting component and with 0.5% fungi (Lentinus edodes). As used herein, the term “control feed” refers to a standard animal feed for meat-producing animals, i.e. feed that can be used in the animal husbandry field and is suitable to be fed to meat-producing animals to supply part or all of the meat-producing animal's nutrient requirements. Water and feed were supplied ad libitum. At the end of the trial, chickens were weighed and feed conversion ratio's were determined (Table 1). Microbial contents in the gastrointestinal tract were determined by plate counting.

Read-outs that look alike come from different tables or passages of the source.

For `COC[C@H]1O[C@@H](OC2OC[C@@H]3O[C@]4(O[C@H]3[C@H]2OC(=O)C(C)C)O[C@H](C)[C@@](O)(C(C)=O)[C@@H]2OCO[C@H]24)[C@@H](OC)[C@@H](O)[C@@H]1O[C@@H]1O[C@H](C)[C@H](OC)[C@H](O[C@H]2C[C@@]3(C)OC4(C[C@@H](O)[C@H](O[C@H]5C[C@@H](O)[C@H](OC(=O)c6c(C)c(Cl)c(O)c(Cl)c6OC)[C@@H](C)O5)[C@@H](C)O4)O[C@@H]3[C@@H](C)O2)[C@H]1O` (stereo partly drawn) [control + Avilamycin, Avilamycin], in data set [1], the FCR was 1.65, the Mortality turned out to be 3.3%, the “Number of veterinary treatments” value is 25 and the Daily growth came out at 365 g/pig/day. In data set [2], the FCR worked out at 1.59 and the Daily growth is reported as 53.99 g/chicken/day.

In the case of `CC[C@@H](C(=O)[C@@H](C)[C@@H](O)[C@H](C)[C@@H]1O[C@@H]([C@@H](CC)C(=O)O)CC[C@@H]1C)[C@H]1O[C@]2(C=C[C@@H](O)[C@]3(CC[C@@](C)([C@H]4CC[C@](O)(CC)[C@H](C)O4)O3)O2)[C@H](C)C[C@@H]1C` [control + Salinomycine, Salinomycine], in data set [1], the FCR was determined as 1.70, the Mortality turned out to be 6.6%, the “Number of veterinary treatments” value is reported as 26 and the Daily growth was 362 g/pig/day. Also, in data set [2], the FCR came out at 1.60 and the Daily growth came out at 54.06 g/chicken/day.

Turning to `O=CO` [control + formic acid, formic acid], in data set [1], the FCR was 1.69, the Mortality amounted to 10.0%, the “Number of veterinary treatments” value is 28 and the Daily growth stood at 351 g/pig/day. In addition, in data set [2], the FCR is 1.55 and the Daily growth was 52.18 g/chicken/day.

For the compound `OP(O)O` [control + phophorous acid, phophorous acid], in data set [1], the FCR was 1.69, the Mortality is given as 6.6%, the “Number of veterinary treatments” value was found to be 30 and the Daily growth stood at 346 g/pig/day. For the same compound, in data set [2], the FCR is 1.56 and the Daily growth came to 52.23 g/chicken/day.

With inulin [control + inulin], in data set [1], the FCR came to 1.78, the Mortality is 10%, the “Number of veterinary treatments” value was 32 and the Daily growth was determined as 330 g/pig/day. In data set [2], the FCR turned out to be 1.65 and the Daily growth is listed as 51.09 g/chicken/day.

Values taken from patent US20050084500A1, “Growth promoter composition for animals” (priority 2001, published 2005).
